# Measured values as given in publication PMC7343282, “Tissue Distribution of Several Series of Cationic Surfactants in Rainbow Trout (Oncorhynchus mykiss) Following Exposure via Water” (Environmental Science & Technology, 2020).
# “And” between values parts separate entries of the source, which are not always exact repeats. Identical values can stand only once.
# Legend:
# carp (Cyprinus carpio) = system: carp (Cyprinus carpio); set-up: method as in ECHA Registration dossier for octadecylamine; conditions: after acidic methanol wash to remove the mucous, validity uncertain, ref ECHA Registration dossier for octadecylamine; cited from earlier work
# [1] = Tissue concentrations in rainbow trout after 7 d exposure via water (two mixtures); assay type: in vivo, Oncorhynchus mykiss; conditions: rainbow trout (Oncorhynchus mykiss), in vivo
# Procedure: The study was conducted with rainbow trout (Oncorhynchus mykiss) weighing between 98 and 165 g. The fish were purchased from Nordic trout Sweden AB and held in the aquaria facility prior to the experiment in February 2018. Ethical approval for the experiments was obtained from Stockholms djurförsöksetiska nämnd (decision 9967-2017). The experiments were conducted in 300 L fiberglass aquaria with a water renewal rate of 1.3 L min^–1 (MIX 1) and 1.45 L min^–1 (MIX 2). The water temperature was 10 °C and the pH 7.5. The water hardness was estimated to be 1.1 mM Ca^2+ based on information from the water supplier. The aquaria water was circulated through a filter of polyester wool at 800–1200 L h^–1 with an Eheim 2273 Pro 4+ pump. The outflow from the filter pump was placed above the water surface, providing for aeration. The lighting was dim and programmed on a 12 h light/12 h dark cycle. The fish were fed fish food pellets supplied by the fish farm at 1.0% of their body weight per day.
# A solution of the test chemical mixture in methanol was infused continuously (3.5 and 3.8 μL min^–1 for MIX 1 and MIX 2, respectively) into the water inflow using a syringe pump. The intended concentrations of the chemicals in water ranged from 2.5 to 50 μg L^–1 (Table 1). They were selected with the help of modeled estimates of the BCF that were based on reported and extrapolated membrane water partition coefficients[7] and biotransformation rate constants predicted with quantitative structure activity relationships (QSARs)[24],[25] to parameterize the BIONIC model.[26] Based on these estimates, we selected an exposure concentration which would result in concentrations in fish that were clearly above the limit of quantification (LOQ) of the analytical method, while trying to keep the quantifiable exposure concentration as low as possible to minimize the risk of toxic effects and micelle formation (see comparison of intended concentrations with available toxicological data in Table S4).
# The surface of the fish posterior of the gills was rinsed with 100% methanol to remove test chemical residues adsorbed to the outer surface of the skin and absorbed in the skin mucus. […] The fish were dissected and the liver, the kidney, the gills, and the remaining contents of the abdominal cavity were taken and weighed. Skin and muscle samples were prepared from the upper dorsal region on semi-frozen fish after the methanol rinse had removed the mucus. The main part of the subcutaneous fat tissue was included in the muscle samples rather than in the skin samples. All samples were stored frozen at −20 °C until further analysis.
# For 6 fish from each aquarium and 3 control fish, samples of muscle, skin, liver, and gills were homogenized in a bullet blender (muscle and liver) (MiniG, SPEXsamplePrep) or in a cryo-mill (skin and gill) (Mixer mill cryomill, Retsch GmbH). A sub-sample of 0.5–1.2 g of the homogenate was extracted twice in methanol (4 mL, 50 °C, ultra-sound, 60 min), employing centrifugation at 4000 rpm for phase separation. Further information on the extraction efficiency of this method can be found in the Supporting Information (Table S5 and accompanying text). Isotope labeled standards of Q10 (D21), Q14 (D29), and P16 (D33) were added to a portion of the extract corresponding to 12–75 mg of the sample. The extract volume was adjusted to 3 mL with methanol and then cleaned up on a weak cationic exchange SPE column (WCX, 60 mg, 30 μm particle size, waters). Solvent elution was performed by gravity flow. The column was conditioned with 2 mL of methanol, followed by 2 mL of Milli-Q water adjusted to pH 7 with ammonium hydroxide to activate the ion exchange. The sample extract was loaded onto the column, and it was subsequently rinsed with 20 mL of methanol.
# [2] = system: rainbow trout (Oncorhynchus mykiss); test: Apparent bioconcentration factor at end of 7-day exposure; assay type: in vivo
# Procedure: Apparent BCFs (BCFapp) at the end of the 7-day exposure were calculated by dividing the surfactant body burden (including mucus) by the fish mass, and dividing this by the average measured concentration in water samples taken during the exposure phase. The BCFapp values ranged from 0.1 to 1260 (Table S18). Given the short exposure period, it is possible that the fish in this study had not approached steady state, in particular with respect to the distribution between water and internal tissues and between water and skin, and that the steady-state BCFs are higher. […] We note that some improvements in the methodology would be helpful, particularly with respect to the stability of the aqueous exposure concentration of the longest chain surfactants. Working with mixtures of analogue cationic surfactants allowed for consistent evaluation of differences in accumulation trends due to structural features.
# [3] = system: rainbow trout (Oncorhynchus mykiss); test: Tissue-blood distribution coefficients and volume of distribution; conditions: residues in muscle, liver and blood only
# Summary of the method: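 In rainbow trout, muscle–blood and liver–blood distribution coefficients were calculated as tissue/blood concentration quotients, assuming internal steady state. Vd was the fish/blood concentration quotient, estimated from residues in muscle, liver and blood.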
# [4] = ref Timmer and Droge (2017); cited from earlier work
# Danio rerio = conditions: ref REACH dossiers (European Chemicals Agency); cited from earlier work
# Pimephales promelas = system: Pimephales promelas; set-up: method as in REACH dossiers (European Chemicals Agency); conditions: ref REACH dossiers (European Chemicals Agency); cited from earlier work
# [5] = pH 7.5, Concentration in muscle
# [6] = end of 7-day exposure, body burden including mucus
SMILES,BCF (carp (Cyprinus carpio)),concentration at 7 d ([1]; Concentration in skin),"concentration at 7 d ([1]; pH 7.5, Concentration in blood)","concentration at 7 d ([1]; pH 7.5, Concentration in gills)","concentration at 7 d ([1]; pH 7.5, Concentration in liver)","concentration at 7 d [1, 5]","concentration at 7 d ([1]; pH 7.5, Concentration in skin)","Apparent bioconcentration factor (BCFapp) [2, 6]",Estimated volume of distribution Vd ([3]; Mean),Estimated volume of distribution Vd ([3]; exposed fish #1),Estimated volume of distribution Vd ([3]; exposed fish #2),Estimated volume of distribution Vd ([3]; exposed fish #3),Estimated volume of distribution Vd ([3]; exposed fish #4),Estimated volume of distribution Vd ([3]; exposed fish #5),Estimated volume of distribution Vd ([3]; exposed fish #6),"Apparent bioconcentration factor (BCFapp) ([2]; rainbow trout (Oncorhynchus mykiss), in vivo, 7 d, pH 7.5)","Log KMW,C (membrane-water partition coefficient of the charged form) [4]",96h-LC50 (Danio rerio),96h-LC50 (Pimephales promelas)
"CCCCCCCCCCCCCCCCN [P16, hexadecylamine]",300 L/kg,415 ng/g,119 ng/g,7960 ng/g,5450 ng/g,90 ng/g,364 ng/g,,,,,,,,,,,,
"CCCCCCCCCCCCCN(C)C [T13, N,N-dimethyltridecylamine]",,,,,,,,510 L kg-1 wet weight,0.71 L/kg,0.58 L/kg,0.64 L/kg,0.59 L/kg,1.18 L/kg,0.80 L/kg,0.47 L/kg,,,,
"CCCCCCCCCCCCN [P12, Dodecylamine]",,4630 ng/g,558 ng/g,18500 ng/g,35600 ng/g,,2720 ng/g,,,,,,,,,230 L kg-1 wet weight,5.58,0.54 µg/mL and 0.42 µg/mL,
"CCCCCCCCCN [P9, Nonylamine]",,,,1040 ng/g,,,70 ng/g,3.3 L kg-1 wet weight,,,,,,,,,3.72,,
"CCCCCCCCCN(C)C [T9, N,N-dimethylnonylamine]",,,,,,,,5.4 L kg-1 wet weight,0.49 L/kg,0.53 L/kg,0.45 L/kg,0.41 L/kg,0.51 L/kg,0.52 L/kg,0.52 L/kg,,3.07,,
"CCCCCCCCCCCCCN [P13, tridecylamine]",,2160 ng/g,495 ng/g,16000 ng/g,,451 ng/g,2040 ng/g,490 L kg-1 wet weight,,,,,,,,,,,0.065 µg/mL
